Laboratory results published in patent US8765779B2, “Tricyclic derivatives and their pharmaceutical use and compositions” (Cephalon, Inc., priority 2009, dated 2014).
Structures can show the parent of a compound that is named as a salt.

target: T1, human 5-HT6 receptor (Homo sapiens, UniProt P50406); assay: Human 5-HT6 Receptor Binding Assay ([3H]LSD displacement, scintillation beads); settings: membranes of CHO-K1 cells with recombinant human 5-HT6, 4 nM [3H]LSD; Table 1, class symbols; read-out: h5-HT6 (Ki)
T1 construct: host or cells: CHO-K1 cells, stably transfected; membranes prepared in house
T1 sequence (P50406 whole entry): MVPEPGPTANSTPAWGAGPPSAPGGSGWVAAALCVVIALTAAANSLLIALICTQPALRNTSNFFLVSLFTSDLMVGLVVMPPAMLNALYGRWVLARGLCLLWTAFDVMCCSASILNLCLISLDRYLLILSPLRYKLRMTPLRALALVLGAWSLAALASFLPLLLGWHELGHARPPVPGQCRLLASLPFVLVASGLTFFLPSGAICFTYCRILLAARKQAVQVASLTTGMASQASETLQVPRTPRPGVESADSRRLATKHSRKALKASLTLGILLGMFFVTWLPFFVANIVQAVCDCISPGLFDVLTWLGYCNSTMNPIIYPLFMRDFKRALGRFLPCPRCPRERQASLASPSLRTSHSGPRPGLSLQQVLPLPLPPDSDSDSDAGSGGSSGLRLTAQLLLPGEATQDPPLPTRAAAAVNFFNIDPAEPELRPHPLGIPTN

| Compound | Ki [nM] |
| --- | --- |
| CC(=O)Nc1ccc(S(=O)(=O)Oc2ccc3c(c2)OC2CNCCC32)cc1 (stereo not drawn) [Example 667] | > 1000 |
| O=S(=O)(Oc1ccc2c(c1)OC1CNCCC21)c1ccc(Cl)c(Cl)c1 (stereo not drawn) [Example 676] | < 500 |
| O=S(=O)(c1cc(F)cc(F)c1)c1ccc2c(c1)OC1CNCCC21 (stereo not drawn) [Example 131] | < 500 |
| O=S(=O)(c1ccc2c3c(oc2c1)[C@]1(CCOC1)NCC3)c1cc(F)ccc1F (single isomer, unassigned) [Example 111] | < 500 |
| O=S(=O)(c1ccc(OC(F)(F)F)cc1)c1ccc2c3c(oc2c1)CNCC3 [Example 227, 7-{[4-(trifluoromethoxy)phenyl]sulfo-nyl}-1,2,3,4-tetrahydro[1]benzofuro[2,3-c]pyridine] | < 500 |
| Cc1cccc(S(=O)(=O)c2ccc3c4c(oc3c2)CNCC4)c1 [Example 221] | < 500 |
| CC12CCNCC1Oc1ccc(OS(=O)(=O)Cc3ccc(Cl)cc3)cc12 (stereo not drawn) [Example 789] | > 1000 |
| O=S(=O)(c1cc[n+]([O-])cc1)c1ccc2c(c1)OC1CNCCC21 (stereo not drawn) [Example 329] | > 1000 |
| O=S(=O)(c1cccc(Br)c1)c1ccc2c3c(oc2c1)CNCC3 [Example 212, 7-[(3-bromophenyl)sulfonyl]-1,2,3,4-tetrahydro[1]benzofuro[2,3-c]pyridine] | < 500 |
| COc1ccc(S(=O)(=O)c2ccc3c(c2)OC2CNCCC32)cc1 (stereo not drawn) [Example 325] | 500 to 1000 |
| CC(C)Oc1cccc(S(=O)(=O)c2ccc3c(c2)OC2CNCCC32C)c1 (single isomer, unassigned) [Example 21, 4a-methyl-7-{[3-(propan-2-yloxy)phenyl]sulfonyl}-1,2,3,4,4a,9a-hexahydro[1]benzofuro[2,3-c]pyridine] | < 500 |
| CC1(C)NCCc2c1oc1cc(S(=O)(=O)c3ccccc3)ccc21 [Example 292] | < 500 |
| O=S(=O)(c1ccc(F)cc1)c1ccc2c3c(oc2c1)CNCC3 [Example 213] | < 500 |
| Cc1ccc(NS(=O)(=O)c2ccc3c(c2)C2CCNCC2O3)cc1F (stereo not drawn) [Example 851] | > 1000 |
| O=S(=O)(c1ccc2c(c1)OC1CNCCC21)c1cccnc1Cl (stereo not drawn) [Example 390] | < 500 |
| O=S(=O)(c1ccc2c3c(oc2c1)CNCC3)c1cccnc1OCC(F)(F)F [Example 440] | < 500 |
| CC(=O)NCC1(C)NCCc2c1oc1cc(S(=O)(=O)c3cccc(F)c3)ccc21 (stereo not drawn) [Example 631, N-({7-[(3-fluorophenyl)sulfonyl]-1-methyl-1,2,3,4-tetrahydro[1]benzofuro[2,3-c]pyridin-1-yl}methyl)acetamide] | < 500 |
| COc1ccc(S(=O)(=O)Oc2ccc3c(c2)C2CCNCC2O3)cc1OC (stereo not drawn) [Example 732] | 500 to 1000 |
| O=S(=O)(Oc1ccc2c(c1)OC1CNCCC21)c1cccc(F)c1 (stereo not drawn) [Example 643] | < 500 |
| O=S(=O)(Oc1ccc2c(c1)C1CCNCC1O2)c1ccc(F)cc1F (stereo not drawn) [Example 712] | > 1000 |
| O=S(=O)(Oc1ccc2c(c1)OC1CNCCC21)c1ccc(N2CCOCC2)nc1 (stereo not drawn) [Example 683] | 500 to 1000 |

| Compound | Ki [nM] |
| --- | --- |
| CC1(C)CNC2(CCOC2)c2oc3cc(S(=O)(=O)c4ccccc4)ccc3c21 (stereo not drawn) [Example 295] | < 500 |
| CC12CCNCC1Oc1ccc(OS(=O)(=O)Cc3ccc(F)cc3)cc12 (stereo not drawn) [Example 790] | > 1000 |
| CC(C)S(=O)(=O)Nc1ccc2c(c1)C1CCNCC1O2 (stereo not drawn) [Example 832] | > 1000 |
| COC(=O)c1cccc(S(=O)(=O)c2ccc3oc4c(c3c2)CCNC4)c1 [Example 269] | 500 to 1000 |
| CN(C)C(=O)c1cccc(S(=O)(=O)c2ccc3c4c(oc3c2)CNCC4)c1 [Example 474, N,N-Dimethyl-3-(1,2,3,4-tetrahydro[1]benzofuro[2,3-c]pyridin-7-ylsulfonyl)benzamide hydrochloride] | > 1000 |
| CC(C)Oc1cccc(S(=O)(=O)c2ccc3c(c2)OC2CNCCC32C)c1 (racemic) [Example 12, 4a-methyl-7-{[3-(propan-2-yloxy)phenyl]sulfonyl}-1,2,3,4,4a,9a-hexahydro[1]benzofuro[2,3-c]pyridine] | < 500 |
| [O-][S+](c1ccc2c(c1)OC1CNCCC21)c1cccnc1F (stereo not drawn) [Example 383] | > 1000 |
| COc1ccc(F)cc1S(=O)(=O)c1ccc2c(c1)OC1CNCCC21 (stereo not drawn) [Example 132] | > 1000 |
| Cc1c(Cl)cccc1S(=O)(=O)Oc1ccc2c(c1)C1CCNCC1O2 (stereo not drawn) [Example 718] | < 500 |
| CC(C)Oc1cccc(S(=O)(=O)c2ccc3c4c(oc3c2)C(C)(C)NCC4)c1 [Example 15, 1,1-dimethyl-7-{[3-(propan-2-yloxy)phenyl]sulfonyl}-1,2,3,4-tetrahydro[1]benzofuro[2,3-c]pyridine] | < 500 |
| CC(C)Oc1cccc(S(=O)(=O)c2ccc3c4c(oc3c2)C2(CCOCC2)NCC4)c1 [Example 44, 7-{[3-(propan-2-yloxy)phenyl]sulfonyl}-2′,3,3′,4,5′,6′-hexahydro-2H-spiro[1-benzofuro[2,3-c]pyridine-1,4′-pyran]] | < 500 |
| O=S(=O)(Nc1ccccc1F)c1ccc2c(c1)C1CCNCC1O2 (stereo not drawn) [Example 839] | > 1000 |
| O=S(=O)(c1ccc(-c2ccccc2)cc1)c1ccc2c(c1)OC1CNCCC21 (stereo not drawn) [Example 145] | > 1000 |
| CC12CCNCC1Oc1cc(S(=O)(=O)c3cccc(C(F)(F)F)c3)ccc12 (stereo not drawn) [Example 357] | < 500 |
| O=S(=O)(Oc1ccc2c(c1)OC1CNCCC21)c1ccccc1 (stereo not drawn) [Example 636] | < 500 |
| O=S(=O)(NCc1ccc(Cl)cc1)c1ccc2c(c1)C1CCNCC1O2 (stereo not drawn) [Example 854] | > 1000 |
| CCOc1cc(F)cc(S(=O)(=O)c2ccc3c(c2)OC2CNCCC32)c1 (stereo not drawn) [Example 401] | < 500 |
| O=S(=O)(c1ccc2oc3c(c2c1)CCNC3)c1cc(F)ccc1F [Example 273] | < 500 |
| 1,2,3,4,4a,9a-hexahydro[1]benzofuro[2,3-c]pyridin-7-yl naphthalene-2-sulfonate [Example 660] | < 500 |
| O=S(=O)(c1ccc2c(c1)OC1CNCCC21)c1cccc(Cl)c1F (stereo not drawn) [Example 409] | < 500 |
| CC(C)C1NCCc2c1oc1cc(S(=O)(=O)c3cccc(Cl)c3)ccc21 (stereo not drawn) [Example 505] | < 500 |

Results, then the compound that gave them:

| Ki [nM] | Compound |
| --- | --- |
| < 500 | O=S(=O)(c1ccccc1)c1ccc2c(c1)OC1CNCCC21 (stereo not drawn) [Example 321, 7-(phenylsulfonyl)-1,2,3,4,4a,9a-hexahydro[1]benzofuro[2,3-c]pyridine] |
| > 1000 | O=S(=O)(Oc1ccc2c(c1)C1CCNCC1O2)c1ccc(Oc2ccccc2)nc1 (stereo not drawn) [Example 746] |
| < 500 | CC1(C)CNC(C2CCOCC2)c2oc3cc(S(=O)(=O)c4cccc(F)c4)ccc3c21 (racemic) [Example 45, 7-[(3-fluorophenyl)sulfonyl]-4,4-dimethyl-1-(tetrahydro-2H-pyran-4-yl)-1,2,3,4-tetrahydro[1]benzofuro[2,3-c]pyridine] |
| < 500 | O=S(=O)(c1cccc(Cl)c1)c1ccc2c3c(oc2c1)C(CC(F)(F)F)NCC3 (stereo not drawn) [Example 504] |
| < 500 | CC(C)Oc1ccccc1S(=O)(=O)c1ccc2c(c1)OC1CNCCC21 (stereo not drawn) [Example 406] |
| < 500 | COc1cc(OCC2CC2)cc(S(=O)(=O)c2ccc3c(c2)OC2CNCCC32)c1 (stereo not drawn) [Example 585] |
| < 500 | O=S(=O)(Oc1ccc2c(c1)OC1CNCCC21)c1ccc2ccccc2c1 (stereo not drawn) [Example 661] |
| < 500 | O=S(=O)(Oc1ccc2c(c1)C1CCNCC1O2)c1ccc(-c2ccccc2)cc1 (stereo not drawn) [Example 743] |
| < 500 | O=S(=O)(c1ccc2c3c(oc2c1)CNCC3)c1cccc2cccnc12 [Example 346] |
| < 500 | CC(C)Oc1cccc(S(=O)(=O)c2ccc3c4c(oc3c2)C2(CCC2)NCC4)c1 [Example 26, 7-{[3-(propan-2-yloxy)phenyl]sulfonyl}-3,4-dihydro-2H-spiro[1-benzofuro[2,3-c]pyridine-1,1′-cyclobutane]] |
| < 500 | O=S(=O)(c1ccc2c(c1)OC1CNCCC21)c1cc(F)cc(F)c1F (stereo not drawn) [Example 412] |
| < 500 | O=S(=O)(c1ccc2c(c1)OC1CNCCC21)c1cccc2c1CCO2 (stereo not drawn) [Example 418] |
| < 500 | CC1NCCc2c1oc1cc(S(=O)(=O)c3ccccc3)ccc21 (stereo not drawn) [Example 235] |
| < 500 | CC(C)(C)c1ccc(S(=O)(=O)Oc2ccc3c(c2)OC2CNCCC32)cc1 (stereo not drawn) [Example 666] |
| > 1000 | O=S(=O)(NC1CCCCC1)c1ccc2c(c1)C1CCNCC1O2 (stereo not drawn) [Example 849, N-cyclohexy1-1,2,3,4,4a,9a-hexahydro[1]benzofuro[2,3-c]pyridine-6-sulfonamide] |
| < 500 | O=S(=O)(c1cccc(Cl)c1)c1ccc2c3c(oc2c1)C(CCC(F)(F)F)NCC3 (stereo not drawn) [Example 522] |
| < 500 | O=S(=O)(c1cccc(Cl)c1)c1ccc2c3c(oc2c1)C1CCN1CC3 (stereo not drawn) [Example 621] |
| < 500 | CC1(C)NCCc2c1oc1cc(S(=O)(=O)c3cccnc3N3CCOCC3)ccc21 [Example 368] |
| < 500 | O=S(=O)(Oc1ccc2c(c1)OC1CNCCC21)c1c(Cl)cccc1Cl (stereo not drawn) [Example 679] |
| > 1000 | CC(C)c1ccc(S(=O)(=O)Nc2ccc3c(c2)C2CCNCC2O3)cc1 (stereo not drawn) [Example 824] |
| < 500 | Cc1cccc(S(=O)(=O)Oc2ccc3c(c2)OC2CNCCC32)c1 (stereo not drawn) [Example 641] |
| > 1000 | O=S(=O)(CCc1ccccc1)Oc1ccc2c(c1)C1CCNCC1O2 (stereo not drawn) [Example 755] |
| > 1000 | COc1cc(S(=O)(=O)c2ccc3c4c(oc3c2)C(C)(C)NCC4)c[n+]([O-])c1 [Example 369] |
| 500 to 1000 | O=S(=O)(Oc1ccc2c(c1)OC1CN(C3CCCCC3)CCC21)c1ccc(Cl)cc1 (stereo not drawn) [Example 802] |
| < 500 | O=S(=O)(c1ccc2ccccc2c1)c1ccc2oc3c(c2c1)CCNC3 [Example 251] |
| < 500 | Cc1c(S(=O)(=O)Oc2ccc3c(c2)OC2CNCCC32)sc2ccc(Cl)cc12 (stereo not drawn) [Example 796] |
| < 500 | O=S(=O)(c1cc(F)cc(Cl)c1)c1ccc2c(c1)OC1CNCCC21 (stereo not drawn) [Example 147] |
| < 500 | O=S(=O)(c1cccnc1)c1ccc2c3c(oc2c1)CNCC3 [Example 438] |
| < 500 | CC1(C)NCCc2c1oc1cc(S(=O)(=O)c3cccc4c3OC(F)(F)O4)ccc21 [Example 465] |

same assay, conditions: membranes of CHO-K1 cells with recombinant human 5-HT6, 4 nM [3H]LSD; specific data; read-out: h5-HT6 (Ki)

| Compound | Ki [nM] |
| --- | --- |
| 1,2,3,4,4a,9a-hexahydro[1]benzofuro[2,3-c]pyridin-7-yl naphthalene-2-sulfonate [Example 660] | 11.4 |
